Laboratory results: patent US20150051210A1, “Tyrosine Kinase Inhibitor Combinations and their Use” (Novartis AG, priority 2012, published 2015)

How the values were obtained:
[1] = system: patient-derived non-small cell lung cancer xenograft LXFL 1121; assay: In vivo anti-tumor efficacy study in xenograft LXFL 1121; conditions: for anti-tumor effect compared to vehicle control / Δ tumor volume: Cpd. B 10 mg/kg bid/qd; for anti-tumor effect compared to vehicle control: BGJ398 40 mg/kg qd orally, 18 days; for Δ tumor volume: end values, BGJ398 40 mg/kg qd, control C 309.6
Experimental: The in vivo anti-tumor efficacy study in the patient-derived non-small cell lung cancer xenograft LXFL 1121 was carried out. Xenografts were grown subcutaneously in nude mice. Eight tumor-bearing mice each were treated with either vehicle control, Cpd. B alone, BGJ398 alone or both drugs in combination at the doses and frequencies indicated. Note that frequency of Cpd. […] Tumor volumes were measured on the indicated days and synergy of the combination treatment was assessed by the method of Clarke, R., Breast Cancer Res. Treat., […].
Mice bearing xenografts derived from this model were randomized to 4 groups that were then treated with a vehicle control, Cpd. B as single agent, BGJ398 as single agent or a combination of both drugs. Cpd. B was commenced at a dose of 10 mg/kg twice daily. BGJ398 was given orally at a dose of 40 mg/kg once daily, and the same regimen for both drugs was used in combination. […] The study was continued in this setup until day 18.
The significance of combination data was assessed using the method presented by Clark (2), which can estimate interactions from limited data. For compound A, B or the combination AB (with control group C), the end values are collected. Antagonism is predicted when the calculation AB/C>A/C×B/C, additive AB/C=A/C×B/C, synergistic interactions are predicted to occur when […].

MKN-45 cells = assay: MKN-45 Dual Inhibition: reversal of rescue with selective inhibitors, CellTiter-Glo cell viability; assay type: cell-based; conditions: for activity on cell viability (reversal of rescue): MET-dependent MKN-45, rhFGF7 or rhNRG-1 250 ng/ml, 96 h, Cpd. A/Cpd. B 100 nM, BGJ398 500 nM, Lapatinib 1.5 μM, FIG. 3, FIG. 4
Experimental: MKN-45 Secretome screen: MKN-45 cells were plated in white, tissue-culture treated 384-well plates (Greiner) at 3000 cells/20 μl DMEM +10% FBS/well and allowed to attach overnight. Supernatant from library-transfected HEK293T/17 cells was then transferred to the MKN-45 cells at 30 μl/well using a Biomek FX liquid handler (Beckman Coulter) with pipetting speeds reduced to minimize disturbance of the HEK293T/17 monolayer. As positive controls, the purified proteins rhEGF and rhNRG1-31 (R&D Systems) were added to isolated wells on each plate for a final concentration of 150 ng/ml; supernatant from mock-transfected HEK293T/17 wells were transferred as neutral controls. Following addition of supernatants and purified protein controls, Cpd. A diluted in DMEM was added at 10 μl/well for a final assay concentration of 100 nM. After 96 hours incubation, growth was measured using the CellTiter-Glo luminescent cell viability assay system (Promega). In brief, 30 μl CellTiter-Glo reagent was added to all wells, then incubated for 15 minutes at room temperature before reading luminescence on a Viewlux plate reader (Perkin Elmer). (FIG. 1)
MKN-45 Dual Inhibition: MKN-45 cells were seeded at 3000 cells/20 μl/well in 384-well plates and incubated overnight. Solutions of rhFGF7 and rhNRG-1 were prepared in DMEM+10%FBS, then added at 30 μl/well to achieve a final concentration of 250 ng/ml (one purified protein per treatment). The following single and dual inhibition treatments were prepared in DMEM and added at […]: Cpd. A, Cpd. B, BGJ398, Lapatinib, Cpd. A and BGJ398, Cpd. B and BGJ398, Cpd. A and Lapatinib, Cpd. B and Lapatinib. Final concentrations for each compound, whether single or combined, were as follows: 100 nM for Cpd. A and Cpd. B, 500 nM for BGJ398 and 1.5 μM for Lapatinib. After 96 hours cell viability was measured by CellTiter-Glo as previously described. (FIG. 3, FIG. 4)

[2] = system: ERK and AKT phosphorylation in KYM-1, MG-63, Hs-683 cells; assay: Western blots in KYM-1, MG-63 and Hs-683 cells (data not shown); assay type: cell-based; conditions: 24 h
Experimental: The indicated cell lines were seeded on 6-well-plates at a density of 500000 cells/well, left for 24 h to attach and then treated with a final concentration of 1 nM of the indicated compounds for another 24 h. Growth media were then removed, cells were washed twice with ice-cold PBS and lysed in 50 mmol/L Tris pH 7.5, 120 mmol/L NaCl, 20 mmol/L NaF, 1 mmol/L EDTA, 6 mmol/L EGTA, 1 mmol/L Benzamidin, 0.2 mmol/L PMSF, 100 mmol/L sodium vanadate, 1% NP-40. The protein concentration of cleared lysates was determined with the BCA Protein Assay Kit. 80 μg protein of each sample was separated by SDS-PAGE on NuPage 4-12% Tris-Bis Midi gels, transferred to a PVDF-membrane, and probed with antibodies as listed above. After washing and incubation with secondary HRP-linked antibodies, bands were visualized using ECL detection reagent.

[3] = system: phosphorylation of MET, ERK1/2, AKT, FRS2 in MKN-45; assay: Western blots of protein phosphorylation in MKN-45 cells; assay type: cell-based
Experimental: Western Blots (Figures not Shown) MKN-45 and RT-112 cells were treated in 6-well plates for 2 hours and 18 hours in the presence or absence of purified protein (rhFGF7, rhNRG1-31, or rhHGF), and/or inhibitor (Cpd. B, Cpd. A, BGJ398). Following wash with ice-cold PBS, cells were lysed with RIPA buffer (Thermo) containing phosphatase (Thermo) and proteinase (Roche) inhibitor cocktails. Total protein was quantified by bicinchoninic protein assay (Pierce). Aliquots of 20 μg were resolved by electrophoresis on NuPAGE SDS-PAGE 4-12% BIS-Tris gels before transfer to nitrocellulose membranes. Membranes were blocked for one hour at room temperature before overnight incubation at 4° C. with the following primary antibodies (source rabbit, 1:1000 final dilution): anti-phospho-Akt (Ser473), anti-phospho-MET (Tyr1234/1235), anti-phospho-MAPK/ERK(1/2) (Thr202/Tyr204), anti-AKT, anti-MAPK/Erk(1/2), and anti-α/β-Tubulin . Anti-MET was probed at 1:800 final dilution An internal antibody was used for phospho-FRS2(Y346) (1:1500 dilution). Membranes were then washed 3 times in PBS+0.1% Tween before addition of secondary antibody, IRDye 680LT goat anti-rabbit IgG , dilution 1:15000. After one hour at room temperature, membranes were washed and bands were visualized using an Odyssey Infrared Imager.

[4] = Δ tumor volume relative to control group C

Row | Structure (SMILES) | anti-tumor effect compared to vehicle control [1] | Δ tumor volume [1] | B/C [1, 4] | activity on cell viability (reversal of rescue) (MKN-45 cells) | reversal of ligand-mediated rescue of proliferation (MKN-45 cells; MKN-45 in presence of MET inhibitor Cpd. A or Cpd. B, FIGS. 3, 4) | inhibition of own target as single agent (Western blot) [2] | reversal of FGF7 rescue effect on FRS2 and ERK1/2 phosphorylation ([3]; MKN-45, MET inhibitor plus FGF7) | A/C [1, 4] | effect on phosphorylation of several proteins (MET, ERK1/2, AKT, FRS2) ([3]; MKN-45, absence of added ligands)
1 | CCN1CCN(c2ccc(Nc3cc(N(C)C(=O)Nc4c(Cl)c(OC)cc(OC)c4Cl)ncn3)cc2)CC1 [BGJ398, 3-(2,6-dichloro-3,5-dimethoxy-phenyl)-1-{6-[4-(4-ethylpiperazin-1-yl)-phenylamino]-pyrimidin-4-yl}-1-methyl-urea] | strong tumor growth inhibition resulting in stable disease | −16.6 | −0.054 | not sufficient | selectively reverse rescue mediated by FGF7 | effectively inhibited its own target | reversed | – | –
2 | CNC(=O)c1ccc(-c2cnc3ncc(Cc4ccc5ncccc5c4)n3n2)cc1F [Cpd. B, 2-fluoro-N-methyl-4-[(7-quinolin-6-yl-methyl)-imidazo[1,2-b]triazin-2-yl]benzamide] | very modest, statistically not significant anti-tumor effect | 333.6 | – | active | – | effectively inhibited its own target | – | 1.078 | profound effect
